From ChEMBL document CHEMBL1201862, “PubChem BioAssay data set” (2004)
Calls of active or inactive are those of the source.

How the values were obtained:
[1] = molecular target: T1, Microphthalmia-associated transcription factor (Homo sapiens, UniProt O75030); test: reducers of TRPM1 reporter luminescence, concentration series – cell-based, SK-MEL-5, cherry-picked, set 3, MITF inhibitor project, dose response (AID 493073); assay type: functional;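 also: SK-MEL-5 melanoma cells with luciferase driven by the MITF target TRPM1 promoter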
T1 sequence (O75030 whole entry): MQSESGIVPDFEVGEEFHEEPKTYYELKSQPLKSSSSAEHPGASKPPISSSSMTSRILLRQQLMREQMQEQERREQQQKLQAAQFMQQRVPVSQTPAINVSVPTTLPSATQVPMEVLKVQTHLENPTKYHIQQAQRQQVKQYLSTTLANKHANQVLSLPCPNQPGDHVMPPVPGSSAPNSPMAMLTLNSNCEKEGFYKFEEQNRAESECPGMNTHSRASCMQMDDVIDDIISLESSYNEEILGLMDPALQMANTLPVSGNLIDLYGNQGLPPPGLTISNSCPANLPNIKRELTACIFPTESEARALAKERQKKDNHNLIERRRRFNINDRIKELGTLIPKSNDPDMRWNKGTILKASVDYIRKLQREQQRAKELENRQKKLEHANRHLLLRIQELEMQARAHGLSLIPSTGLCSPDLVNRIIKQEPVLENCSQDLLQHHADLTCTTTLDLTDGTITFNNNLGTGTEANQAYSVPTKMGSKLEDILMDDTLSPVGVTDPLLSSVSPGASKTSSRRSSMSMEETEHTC

[2] = molecular target: T2, Histone-lysine N-methyltransferase NSD2 (Homo sapiens, UniProt O96028); assay type: biochemical
T2 sequence (O96028 whole entry): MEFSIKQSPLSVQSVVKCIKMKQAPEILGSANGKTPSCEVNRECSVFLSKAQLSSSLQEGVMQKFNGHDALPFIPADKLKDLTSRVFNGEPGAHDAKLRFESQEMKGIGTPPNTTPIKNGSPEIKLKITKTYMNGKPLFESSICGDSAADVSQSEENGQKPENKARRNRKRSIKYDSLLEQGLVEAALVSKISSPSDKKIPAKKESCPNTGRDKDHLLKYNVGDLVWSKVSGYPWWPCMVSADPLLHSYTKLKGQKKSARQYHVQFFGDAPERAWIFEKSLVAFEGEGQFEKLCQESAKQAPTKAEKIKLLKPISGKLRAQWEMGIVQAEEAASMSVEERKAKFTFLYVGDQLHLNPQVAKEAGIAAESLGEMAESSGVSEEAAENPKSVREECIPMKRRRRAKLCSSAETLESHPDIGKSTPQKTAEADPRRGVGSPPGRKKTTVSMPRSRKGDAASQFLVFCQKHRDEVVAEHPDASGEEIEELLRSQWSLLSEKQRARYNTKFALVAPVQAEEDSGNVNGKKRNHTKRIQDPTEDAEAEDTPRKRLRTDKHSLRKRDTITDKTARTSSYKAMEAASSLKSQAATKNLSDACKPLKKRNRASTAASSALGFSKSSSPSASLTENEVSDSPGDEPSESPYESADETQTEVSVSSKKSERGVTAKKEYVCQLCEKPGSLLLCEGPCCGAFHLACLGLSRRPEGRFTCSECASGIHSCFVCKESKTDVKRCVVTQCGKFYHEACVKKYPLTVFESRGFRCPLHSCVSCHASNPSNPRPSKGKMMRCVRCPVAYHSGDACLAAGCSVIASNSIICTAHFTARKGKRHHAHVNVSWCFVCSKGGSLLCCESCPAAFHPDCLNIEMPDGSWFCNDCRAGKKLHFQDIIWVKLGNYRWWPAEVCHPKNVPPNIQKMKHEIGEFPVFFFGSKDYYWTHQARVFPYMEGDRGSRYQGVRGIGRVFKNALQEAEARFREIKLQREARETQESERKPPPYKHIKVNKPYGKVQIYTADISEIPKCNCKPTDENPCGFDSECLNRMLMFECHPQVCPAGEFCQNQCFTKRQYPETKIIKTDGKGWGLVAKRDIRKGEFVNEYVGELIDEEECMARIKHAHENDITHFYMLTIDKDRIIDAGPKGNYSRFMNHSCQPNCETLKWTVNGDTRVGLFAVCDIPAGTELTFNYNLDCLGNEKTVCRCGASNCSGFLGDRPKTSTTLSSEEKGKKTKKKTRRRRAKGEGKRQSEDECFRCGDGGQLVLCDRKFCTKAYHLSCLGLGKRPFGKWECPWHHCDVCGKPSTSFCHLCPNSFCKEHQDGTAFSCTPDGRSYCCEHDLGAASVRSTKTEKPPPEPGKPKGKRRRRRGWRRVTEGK

[3] = system: Vero; test: viability of Vero cells under compound – cytotoxicity control for flavivirus capping enzyme inhibitors (AID 588742); assay type: functional; settings: Chlorocebus sabaeus
[4] = molecular target: ATP-dependent molecular chaperone HSP82 (Candida albicans (strain WO-1) (Yeast), UniProt C4YTQ8); test: steroid-induced GRE reporter decrease in yeast – S. cerevisiae, luminescence, Hsp90 inhibitor project, dose response (AID 2400); assay type: functional, cell-based;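 also: beta-galactosidase luminescence from glucocorticoid response element reporter as proxy for Hsp90 function; inhibitor potency where signal loss means Hsp90 inhibition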
[5] = molecular target: Dual specificity tyrosine-phosphorylation-regulated kinase 1A (Homo sapiens, UniProt Q13627); assay type: functional;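 also: measured against DYRK1A as one member of a broad kinome profiling panel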
[6] = molecular target: Ribosomal protein S6 kinase alpha-3 (Homo sapiens, UniProt P51812); assay type: functional;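 also: measured within a kinome-wide profiling panel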
[7] = molecular target: cAMP-dependent protein kinase catalytic subunit alpha (Homo sapiens, UniProt P17612); assay type: functional
[8] = molecular target: Serine/threonine-protein kinase PAK 4 (Homo sapiens, UniProt O96013); assay type: functional;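 also: value obtained within a kinome profiling panel in which PAK4 was one of the panel members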
[9] = molecular target: Mitogen-activated protein kinase 9 (Homo sapiens, UniProt P45984); assay type: functional;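 also: value from a kinome panel profiling assay, MAPK9 panel entry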
[10] = molecular target: Dual specificity mitogen-activated protein kinase kinase 1 (Homo sapiens, UniProt Q02750); test: Navigating the Kinome. Panel member name: MAP2K1; assay type: functional
Dual specificity mitogen-activated protein kinase kinase 1, sequence (Q02750 whole entry): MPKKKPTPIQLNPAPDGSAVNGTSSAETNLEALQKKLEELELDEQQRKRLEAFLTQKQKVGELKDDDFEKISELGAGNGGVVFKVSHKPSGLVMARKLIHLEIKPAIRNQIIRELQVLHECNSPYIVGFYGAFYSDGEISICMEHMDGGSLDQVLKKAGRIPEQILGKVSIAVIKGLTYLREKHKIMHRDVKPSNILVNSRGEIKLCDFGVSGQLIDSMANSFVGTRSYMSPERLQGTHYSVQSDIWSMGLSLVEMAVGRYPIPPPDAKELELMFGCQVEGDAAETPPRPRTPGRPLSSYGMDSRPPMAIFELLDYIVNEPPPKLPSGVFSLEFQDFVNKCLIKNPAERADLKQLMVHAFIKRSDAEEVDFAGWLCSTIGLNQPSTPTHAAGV

Serine/threonine-protein kinase PAK 4, sequence (O96013 whole entry): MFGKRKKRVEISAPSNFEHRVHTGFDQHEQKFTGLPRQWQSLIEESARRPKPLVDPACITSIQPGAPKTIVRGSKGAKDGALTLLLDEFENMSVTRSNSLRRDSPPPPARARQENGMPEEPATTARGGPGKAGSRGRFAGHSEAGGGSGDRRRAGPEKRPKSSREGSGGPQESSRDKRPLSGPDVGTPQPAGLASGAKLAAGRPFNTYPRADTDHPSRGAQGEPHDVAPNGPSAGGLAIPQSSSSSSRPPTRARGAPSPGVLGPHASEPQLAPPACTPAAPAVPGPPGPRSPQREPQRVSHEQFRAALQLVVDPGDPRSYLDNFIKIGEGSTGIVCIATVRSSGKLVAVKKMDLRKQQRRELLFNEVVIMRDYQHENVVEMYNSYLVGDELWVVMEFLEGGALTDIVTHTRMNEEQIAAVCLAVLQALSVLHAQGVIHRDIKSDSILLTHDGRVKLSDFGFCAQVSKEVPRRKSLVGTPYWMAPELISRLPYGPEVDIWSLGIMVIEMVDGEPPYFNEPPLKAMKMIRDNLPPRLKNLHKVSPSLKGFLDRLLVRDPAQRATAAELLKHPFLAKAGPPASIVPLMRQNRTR
Ribosomal protein S6 kinase alpha-3, sequence (P51812 whole entry): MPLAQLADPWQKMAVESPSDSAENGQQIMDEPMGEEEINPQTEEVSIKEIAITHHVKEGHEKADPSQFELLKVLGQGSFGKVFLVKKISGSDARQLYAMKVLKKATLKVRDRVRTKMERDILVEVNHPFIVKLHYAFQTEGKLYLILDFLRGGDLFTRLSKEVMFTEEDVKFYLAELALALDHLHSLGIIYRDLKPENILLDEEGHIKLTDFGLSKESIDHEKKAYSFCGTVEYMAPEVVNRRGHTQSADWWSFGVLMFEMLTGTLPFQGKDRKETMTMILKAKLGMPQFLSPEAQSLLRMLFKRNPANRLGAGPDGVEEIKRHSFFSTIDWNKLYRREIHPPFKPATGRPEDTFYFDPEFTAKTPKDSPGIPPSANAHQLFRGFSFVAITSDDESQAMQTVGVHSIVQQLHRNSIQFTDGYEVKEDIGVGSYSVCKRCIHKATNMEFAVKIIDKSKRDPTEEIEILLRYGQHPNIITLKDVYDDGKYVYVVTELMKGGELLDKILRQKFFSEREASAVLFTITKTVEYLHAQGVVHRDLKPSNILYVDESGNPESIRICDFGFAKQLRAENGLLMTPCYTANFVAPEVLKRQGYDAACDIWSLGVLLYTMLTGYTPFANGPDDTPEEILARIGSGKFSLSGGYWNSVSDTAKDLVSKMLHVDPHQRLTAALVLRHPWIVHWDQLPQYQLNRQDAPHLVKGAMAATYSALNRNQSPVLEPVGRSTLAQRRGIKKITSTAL
ATP-dependent molecular chaperone HSP82, sequence (C4YTQ8 whole entry): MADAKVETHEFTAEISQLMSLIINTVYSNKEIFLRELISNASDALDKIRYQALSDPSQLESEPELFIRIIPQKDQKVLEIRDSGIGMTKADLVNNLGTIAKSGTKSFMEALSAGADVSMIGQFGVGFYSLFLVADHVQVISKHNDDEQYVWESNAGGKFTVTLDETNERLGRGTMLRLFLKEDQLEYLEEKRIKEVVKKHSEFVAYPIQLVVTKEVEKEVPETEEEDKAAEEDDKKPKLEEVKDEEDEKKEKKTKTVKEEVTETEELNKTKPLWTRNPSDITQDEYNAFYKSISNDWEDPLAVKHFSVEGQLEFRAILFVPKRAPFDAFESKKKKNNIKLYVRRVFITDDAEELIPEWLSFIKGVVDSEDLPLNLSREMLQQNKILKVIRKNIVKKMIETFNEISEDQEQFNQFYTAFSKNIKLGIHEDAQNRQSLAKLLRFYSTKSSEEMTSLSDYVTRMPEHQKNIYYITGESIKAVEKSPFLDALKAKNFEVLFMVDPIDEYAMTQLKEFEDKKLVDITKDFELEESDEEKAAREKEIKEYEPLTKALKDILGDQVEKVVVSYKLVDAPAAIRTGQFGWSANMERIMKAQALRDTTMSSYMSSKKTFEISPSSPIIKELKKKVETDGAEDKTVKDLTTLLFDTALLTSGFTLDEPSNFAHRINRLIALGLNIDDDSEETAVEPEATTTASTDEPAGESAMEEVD
Mitogen-activated protein kinase 9, sequence (P45984 whole entry): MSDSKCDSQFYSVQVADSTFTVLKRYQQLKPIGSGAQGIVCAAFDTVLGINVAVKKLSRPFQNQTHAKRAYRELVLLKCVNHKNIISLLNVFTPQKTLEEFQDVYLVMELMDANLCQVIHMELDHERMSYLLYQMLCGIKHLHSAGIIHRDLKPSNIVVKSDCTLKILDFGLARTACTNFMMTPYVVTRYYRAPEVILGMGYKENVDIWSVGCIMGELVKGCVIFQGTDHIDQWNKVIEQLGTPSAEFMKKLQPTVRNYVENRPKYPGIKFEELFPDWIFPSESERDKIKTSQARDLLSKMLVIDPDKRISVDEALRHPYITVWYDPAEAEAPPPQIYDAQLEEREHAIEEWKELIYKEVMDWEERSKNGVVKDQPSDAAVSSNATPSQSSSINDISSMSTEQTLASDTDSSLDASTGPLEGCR

Compound: CCc1cc[n+](C2=C([N-]S(=O)(=O)c3cccs3)C(=O)c3ccccc3C2=O)cc1
- AC50 [1]: 1.15 µM (active)

Compound: O=C(NC1=C(NC2CCS(=O)(=O)C2)C(=O)c2ccccc2C1=O)c1ccccc1 (stereo not given)
- AC50 [2]: > 20 µM (inactive)
- CC50 [3]: 7.48 µM (active)

Compound: CCCC(=O)NC(c1ccc(N(C)C)cc1)c1ccc2cccnc2c1O (stereo not given)
- EC50 [4]: > 160 µM (inactive)

Compound: O=C1NC(=O)C(c2c[nH]c3ccccc23)=C1c1nc(N2CCNCC2)nc2ccccc12
- Ki [5]: > 2 µM (inactive)
- Ki [6]: 0.0501 µM (active)
- Ki [7]: 0.0316 µM (active)
- Ki [8]: 2 µM (active)
- Ki [9]: > 3.98 µM (inactive)
- Ki [10]: 0.794 µM (active)
